Measured values published in PubChem BioAssay (NCI).
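Exposure lasted 48 hours, with cells grown in 96-well plates and compounds tested at five concentrations. GI50 is the concentration that inhibits growth by half. TGI: concentration producing complete growth inhibition.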

How the values were obtained:
Experiment in all cases: growth of human tumour cells (NCI), 48 h
[1] = tested on: NCI-H23 lung
[2] = tested on: NCI-H460 lung
[3] = tested on: NCI-H522 lung
[4] = tested on: NCI/ADR-RES ovarian
[5] = tested on: OVCAR-3 ovarian
[6] = tested on: OVCAR-4 ovarian
[7] = tested on: OVCAR-5 ovarian
[8] = tested on: OVCAR-8 ovarian
[9] = tested on: PC-3 prostate
[10] = tested on: RPMI-8226 leukemia
[11] = tested on: RXF 393 renal
[12] = tested on: SF-268 CNS
[13] = tested on: SF-295 CNS
[14] = tested on: SF-539 CNS
[15] = tested on: SK-MEL-2 melanoma
[16] = tested on: SK-MEL-28 melanoma
[17] = tested on: SK-MEL-5 melanoma
[18] = tested on: SK-OV-3 ovarian
[19] = tested on: SN12C renal
[20] = tested on: SNB-19 CNS
[21] = tested on: SNB-75 CNS
[22] = tested on: SR leukemia
[23] = tested on: SW-620 colon
[24] = tested on: T-47D breast
[25] = tested on: TK-10 renal
[26] = tested on: U251 CNS
[27] = tested on: UACC-257 melanoma
[28] = tested on: UACC-62 melanoma
[29] = tested on: UO-31 renal

## COc1ccc(-c2nc3ccccc3n2CC(=O)N=Nc2c(O)[nH]c3ccc(OC)cc23)cc1
[1]
  GI50: 10.4 µM
  TGI: 23.5 µM
[2]
  GI50: 4.22 µM
  TGI: 15.4 µM
[3]
  GI50: 6.18 µM
  TGI: 22.9 µM
[4]
  GI50: 2.02 µM
  TGI: 5.18 µM
[5]
  GI50: 12.5 µM
  TGI: 26.6 µM
[6]
  GI50: 11.6 µM
  TGI: 30 µM
[7]
  GI50: 13.8 µM
  TGI: 33.6 µM
[8]
  GI50: 2.3 µM
  TGI: 5.85 µM
[9]
  GI50: 12.1 µM
  TGI: 42.3 µM
[10]
  GI50: 13.2 µM
  TGI: > 100 µM
[11]
  GI50: 1.87 µM
  TGI: 3.59 µM
[12]
  GI50: 13.3 µM
  TGI: 31.6 µM
[13]
  GI50: 14.3 µM
  TGI: 34.7 µM
[14]
  GI50: 2.95 µM
  TGI: 9.35 µM
[15]
  GI50: 17.6 µM
  TGI: 33.6 µM
[16]
  GI50: 4.4 µM
  TGI: 19.9 µM
[17]
  GI50: 5.37 µM
  TGI: 18.3 µM
[18]
  GI50: 15.6 µM
  TGI: 30.8 µM
[19]
  GI50: 6.02 µM
  TGI: 19.3 µM
[20]
  GI50: 15.3 µM
  TGI: 29.5 µM
[21]
  GI50: 7.41 µM
  TGI: 22.1 µM
[22]
  GI50: 2.52 µM
  TGI: 25.7 µM
[23]
  GI50: 4.46 µM
  TGI: 19.7 µM
[24]
  GI50: 3.46 µM
  TGI: 16.3 µM
[25]
  GI50: 10.9 µM
  TGI: 23.1 µM
[26]
  GI50: 12.5 µM
  TGI: 25.3 µM
[27]
  GI50: 2.56 µM
  TGI: 7.16 µM
[28]
  GI50: 11.2 µM
  TGI: 23.3 µM
[29]
  GI50: 11.2 µM
  TGI: 23.2 µM
